In the NIST ThermoML archive (doi:10.1021/je900478c):

Experiment: xn = mol fraction of the nth substance listed
Details: 101 kPa, Liquid; for viscosity: Capillary tube (Ostwald / Ubbelohde) method

CCCCCCOCCOCCO [2-(2-hexyloxyethoxy)ethanol] + O
mass density [kg/m3]
Details | 283.15 K | 288.15 K | 293.15 K | 303.15 K | 313.15 K
x1 = 0.0005 | 999.68 | 999.08 | 998.19 | 995.64 | 992.26
x1 = 0.00075 | 999.67 | 999.06 | 998.17 | 995.59 | 992.23
x1 = 0.001 | 999.66 | 999.07 | 998.17 | 995.58 | 992.18
x1 = 0.00118 | 999.7 | 999.09 | 998.17 | 995.57 | 992.11
x1 = 0.00135 | 999.76 | 999.14 | 998.2 | 995.58 | 992.03
x1 = 0.0015 | 999.84 | 999.17 | 998.16 | 995.51 | 991.94
x1 = 0.00164 | 999.86 | 999.18 | 998.09 | – | –
x1 = 0.00196 | 999.87 | 999.15 | – | – | –
x1 = 0.00225 | 999.88 | 999.08 | – | – | –
x1 = 0.01501 | 995.9 | – | – | – | –
x1 = 0.01996 | 994.71 | – | – | – | –
x1 = 0.02493 | 993.53 | – | – | – | –
x1 = 0.03004 | 992.45 | – | – | – | –
x1 = 0.03536 | 991.13 | – | – | – | –
x1 = 0.03996 | 990.1 | – | – | – | –
x1 = 0.04496 | 989.11 | – | – | – | –
x1 = 0.0501 | 988.12 | 985.54 | – | – | –
x1 = 0.05911 | 986.43 | 983.76 | – | – | –
x1 = 0.06985 | 984.69 | 982.01 | 979.28 | – | –
x1 = 0.07977 | 983.2 | 980.24 | 977.23 | – | –
x1 = 0.08835 | 982.02 | 978.92 | 975.77 | – | –
x1 = 0.09988 | 980.51 | 977.4 | 973.98 | – | –
x1 = 0.1332 | 976.63 | 973.14 | 969.58 | 962.38 | –
x1 = 0.2029 | 970.18 | 966.49 | 962.68 | 955.04 | 947.26
x1 = 0.2856 | 964.36 | 960.42 | 956.52 | 948.66 | 940.71
x1 = 0.3597 | 960.18 | 956.18 | 952.21 | 944.22 | 936.21
x1 = 0.4529 | 955.83 | 951.8 | 947.82 | 939.82 | 931.76
x1 = 0.5426 | 952.4 | 948.39 | 944.4 | 936.42 | 928.33
x1 = 0.6772 | 948.33 | 944.25 | 940.24 | 932.25 | 924.21
x1 = 0.827 | 945.13 | 941.05 | 937.03 | 929.05 | 921.02
x1 = 1 | 942.09 | 938.05 | 934.06 | 926.08 | 918.17

CCCCOCCO [2-butoxyethan-1-ol] + O
Details | mass density, 283.15 K [kg/m3] | mass density, 293.15 K [kg/m3] | mass density, 303.15 K [kg/m3] | mass density, 313.15 K [kg/m3] | mass density, 323.15 K [kg/m3] | viscosity, 283.15 K [mPa·s] | viscosity, 293.15 K [mPa·s] | viscosity, 303.15 K [mPa·s] | viscosity, 313.15 K [mPa·s] | viscosity, 323.15 K [mPa·s]
x1 = 0.0005 | 999.62 | 998.13 | 995.57 | 992.12 | – | – | – | – | – | –
x1 = 0.001 | 999.53 | 998.01 | 995.46 | 992.02 | – | – | – | – | – | –
x1 = 0.00201 | 999.43 | 997.89 | 995.29 | 991.8 | – | – | – | – | – | –
x1 = 0.003 | 999.37 | 997.78 | 995.12 | 991.58 | – | – | – | – | – | –
x1 = 0.00399 | 999.24 | 997.6 | 994.89 | 991.31 | – | – | – | – | – | –
x1 = 0.005 | 999.06 | 997.34 | 994.59 | 990.98 | – | – | – | – | – | –
x1 = 0.00601 | 998.89 | 997.11 | 994.27 | 990.64 | – | – | – | – | – | –
x1 = 0.00699 | 998.86 | 996.97 | 994.06 | 990.36 | – | – | – | – | – | –
x1 = 0.00801 | 998.8 | 996.83 | 993.86 | 990.11 | – | – | – | – | – | –
x1 = 0.00896 | 998.72 | 996.7 | 993.69 | 989.86 | – | – | – | – | – | –
x1 = 0.00998 | 998.68 | 996.57 | 993.5 | 989.6 | – | – | – | – | – | –
x1 = 0.01102 | 998.64 | 996.43 | 993.3 | 989.31 | – | – | – | – | – | –
x1 = 0.01209 | 998.59 | 996.3 | 993.09 | 988.99 | – | – | – | – | – | –
x1 = 0.01317 | 998.55 | 996.16 | 992.85 | 988.65 | – | – | – | – | – | –
x1 = 0.01401 | 998.49 | 996.02 | 992.63 | 988.37 | – | – | – | – | – | –
x1 = 0.01499 | 998.49 | 995.91 | 992.38 | 988.01 | – | – | – | – | – | –
x1 = 0.01959 | 998.45 | 994.9 | 990.79 | 985.95 | – | – | – | – | – | –
x1 = 0.02529 | 997 | 992.94 | 988.38 | 983.21 | – | – | – | – | – | –
x1 = 0.0307 | 995.31 | 990.88 | 986.03 | 980.66 | – | – | – | – | – | –
x1 = 0.03495 | 993.94 | 989.28 | 984.22 | 978.71 | – | – | – | – | – | –
x1 = 0.04047 | 992.16 | 987.22 | 981.99 | 976.24 | – | – | – | – | – | –
x1 = 0.04524 | 990.59 | 985.5 | 980.12 | 974.25 | – | – | – | – | – | –
x1 = 0.04961 | 989.23 | 983.99 | 978.47 | 972.5 | – | – | – | – | – | –
x1 = 0.05991 | 986.08 | 980.54 | 974.75 | 968.52 | – | – | – | – | – | –
x1 = 0.06979 | 983.28 | 977.49 | 971.48 | 965.02 | – | – | – | – | – | –
x1 = 0.07979 | 980.63 | 974.61 | 968.38 | 961.77 | – | – | – | – | – | –
x1 = 0.08979 | 978.05 | 971.87 | 965.46 | 958.67 | – | – | – | – | – | –
x1 = 0.1003 | 975.52 | 969.12 | 962.59 | 955.66 | – | 5.489 | 3.791 | 2.772 | 2.126 | –
x1 = 0.2 | 957.51 | 950.15 | 942.62 | 934.8 | 926.83 | 7.107 | 4.854 | 3.483 | 2.584 | 1.979
x1 = 0.3 | 945.28 | 937.5 | 929.57 | 921.47 | 913.23 | 7.415 | 5.079 | 3.64 | 2.698 | 2.054
x1 = 0.4 | 935.77 | 927.76 | 919.6 | 911.3 | 902.87 | 7.234 | 4.994 | 3.594 | 2.672 | 2.038
x1 = 0.5 | 928.69 | 920.54 | 912.16 | 903.78 | 895.22 | 6.83 | 4.761 | 3.448 | 2.583 | 1.981
x1 = 0.6 | 923.16 | 914.96 | 906.6 | 898.14 | 889.56 | 6.352 | 4.476 | 3.272 | 2.465 | 1.901
x1 = 0.7 | 918.7 | 910.49 | 902.02 | 893.57 | 884.96 | 5.857 | 4.172 | 3.079 | 2.337 | 1.813
x1 = 0.7999 | 915.01 | 906.78 | 898.3 | 889.84 | 881.26 | 5.36 | 3.865 | 2.879 | 2.205 | 1.721
x1 = 0.9 | 912.08 | 903.8 | 895.3 | 886.83 | 878.23 | 4.885 | 3.56 | 2.679 | 2.068 | 1.629
x1 = 1 | 909.49 | 901.18 | 892.68 | 884.21 | 875.6 | 4.46 | 3.288 | 2.499 | 1.946 | 1.543
